This is an account of results in US8785459B2, “Quinazoline compounds as kinase inhibitors” (Development Center for Biotechnology, priority 2011, dated 2014).

Some results are limits rather than exact numbers.

One may read the IC50 as the midpoint of a concentration-inhibition curve. The inhibition is the drop in the measured response relative to a control, in per cent.

B-Raf (V600E), sequence (P15056 whole entry V600E): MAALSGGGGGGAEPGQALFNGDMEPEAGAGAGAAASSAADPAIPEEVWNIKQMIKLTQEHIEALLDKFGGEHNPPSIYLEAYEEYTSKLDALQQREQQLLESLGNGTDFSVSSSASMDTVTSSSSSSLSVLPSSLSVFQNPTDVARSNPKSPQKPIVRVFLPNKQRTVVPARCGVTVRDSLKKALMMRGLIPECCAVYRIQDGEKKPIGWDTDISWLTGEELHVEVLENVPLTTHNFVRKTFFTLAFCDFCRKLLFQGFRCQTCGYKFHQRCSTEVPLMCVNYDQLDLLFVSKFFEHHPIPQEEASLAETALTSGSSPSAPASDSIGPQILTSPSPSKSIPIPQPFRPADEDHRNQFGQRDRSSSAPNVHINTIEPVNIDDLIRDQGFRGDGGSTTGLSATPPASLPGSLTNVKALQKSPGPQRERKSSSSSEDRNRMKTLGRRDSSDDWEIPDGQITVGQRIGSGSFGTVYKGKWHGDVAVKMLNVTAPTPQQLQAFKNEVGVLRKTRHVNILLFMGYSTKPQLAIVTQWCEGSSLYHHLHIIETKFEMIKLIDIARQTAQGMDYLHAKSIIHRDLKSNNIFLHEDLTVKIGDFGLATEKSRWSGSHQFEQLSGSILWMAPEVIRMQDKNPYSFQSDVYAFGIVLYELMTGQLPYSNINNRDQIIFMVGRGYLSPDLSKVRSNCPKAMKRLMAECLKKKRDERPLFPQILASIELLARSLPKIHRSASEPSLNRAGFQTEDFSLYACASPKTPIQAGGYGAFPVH

One assay addresses B-Raf (V600E) (Homo sapiens (Human), UniProt P15056, V600E). Put plainly: Raf kinase assay (B-Raf (V600E)), [33P] incorporation into MEK1(K97R). Format: biochemical.
Conditions: not given
As to the method:
(§1) A. Raf Kinase Assays (B-Raf, B-raf (V600E), and C-Raf)
(§2) Inhibition of kinase activity by test compound disclosed herein was estimated by quantifying the amount of [^33P] incorporation of substrate in the presence of test compound. Standard assay conditions were 2 ng of recombinant C-Raf or 5 ng of recombinant B-Raf or 5 ng of recombinant B-Raf (V600E) kinase (Upstate Biotechnology) with 500 ng MEK1(K97R) in assay buffer {8 μM ATP, 0.5 μCi [^33P]ATP (specific activity 3000 Ci/mmol, PerkinElmer), 50 mM Tris/HCl (pH7.5), and 1 mM EGTA, 1 mM Na3VO4, 1% 2-mercaptoethanol, 0.1% Brij 35, and 0.2 mg/ml BSA} at a final volume of 25 μL. Reactions were incubated at 30° C. for 30 min and stopped by adding 3% phosphoric acid, harvested onto a 96-well GF/B UniFilter (PerkinElmer) using a unifilter harvester (PerkinElmer), and counted with a TopCount microplate scintillation counter (PerkinElmer). The IC50 values of inhibitors were determined after carrying out assays at 3-fold serially diluted concentrations of each compound in duplication. The results were analyzed using linear regression software (GraphPad Prism 4; GraphPad Software Inc.). Inhibition of B-Raf, B-raf (V600E), and C-Raf kinases by various compounds listed in Table 1 are summarized and shown in Table 3 below. IC50 value is defined as the concentration of the test compound which achieves a half-maximal inhibition of the kinase activity.
In the case of `COc1cccc(-c2ccc3ncnc(Nc4ccccc4)c3c2)c1` [Compound 3, 6-(3-methoxyphenyl)-N-phenylquinazolin-4-amine], the IC50 turned out to be 3390 nM.
On to `Oc1ccc(-c2ccc3ncnc(Nc4ccccc4)c3c2)cc1` [Compound 4, 4-(4-(phenylamino)quinazolin-6-yl)phenol], for which it took 4870 nM to reach half-maximal inhibition (IC50).
Still for that read-out and setting: to `CCS(=O)(=O)Nc1ccc(-c2ccc3ncnc(Nc4ccccc4)c3c2)cc1` [Compound 24, N-(4-(4-(phenylamino)quinazolin-6-yl)phenyl)ethanesulfonamide] belongs 1810 nM.

Another assay deals with B-Raf (Homo sapiens (Human), UniProt P15056). Put plainly: Raf kinase assay (B-Raf), [33P] incorporation into MEK1(K97R). Format: biochemical.
B-Raf, sequence (P15056 whole entry): as the sequence (P15056 whole entry V600E) above, with E600V counted along it
Conditions: not given
As to the method:
as §1, §2
For `COc1cccc(-c2ccc3ncnc(Nc4ccccc4)c3c2)c1` [Compound 3, 6-(3-methoxyphenyl)-N-phenylquinazolin-4-amine], half-maximal inhibition (IC50) was put at 3290 nM.
On the same count and under the same terms, in the case of `Oc1ccc(-c2ccc3ncnc(Nc4ccccc4)c3c2)cc1` [Compound 4, 4-(4-(phenylamino)quinazolin-6-yl)phenol] it was 3990 nM; in that of `CCS(=O)(=O)Nc1ccc(-c2ccc3ncnc(Nc4ccccc4)c3c2)cc1` [Compound 24, N-(4-(4-(phenylamino)quinazolin-6-yl)phenyl)ethanesulfonamide], 1700 nM.

Staying with this assay, now noted: 1.0 μM compound.
In the case of `COc1cc(-c2ccc3ncnc(Nc4c(F)ccc5[nH]ncc45)c3c2)ccc1O` [Compound 149, 4-(4-(5-fluoro-1H-indazol-4-ylamino)quinazolin-6-yl)-2-methoxyphenol], the “B-Raf inhibition at 1.0 μM” value is 15.2%.

The assay is the same for the next values; noted with them: 1.0 μM compound; read-out: B-Raf inhibition at 1.0 μM.
As to `COc1ccc(-c2ccc3ncnc(Nc4ccccc4)c3c2)cc1` [Compound 10, 6-(4-methoxyphenyl)-N-phenylquinazolin-4-amine], the inhibition at 1 µM was found to be 15.8%.
On the same count and under the same terms, in the case of `NC(=O)Nc1ccc(-c2ccc3ncnc(Nc4ccccc4)c3c2)cc1` [Compound 11, 1-(4-(4-(phenylamino)quinazolin-6-yl)phenyl)urea] it was 19.9%.
Regarding `CCNC(=O)Nc1ccc(-c2ccc3ncnc(Nc4ccccc4)c3c2)cc1` [Compound 12, 1-ethyl-3-(4-(4-(phenylamino)quinazolin-6-yl)phenyl)urea], the inhibition at 1 µM was 18.2%.
The same measure, in the same setting: in the case of `COc1cc(-c2ccc3ncnc(Nc4ccc(OC)c(OC)c4)c3c2)ccc1O` [Compound 13, 4-(4-(3,4-dimethoxyphenylamino)quinazolin-6-yl)-2-methoxyphenol] it was 7.7%; in that of `CCS(=O)(=O)Nc1ccc(-c2ccc3ncnc(Nc4ccccc4)c3c2)cc1` [Compound 24, N-(4-(4-(phenylamino)quinazolin-6-yl)phenyl)ethanesulfonamide], 48.6%.
On to `CCS(=O)(=O)Nc1ccc(-c2ccc3ncnc(Nc4cccc(NS(=O)(=O)CC)c4)c3c2)cc1` [Compound 26, N-(3-(6-(4-(ethylsulfonamido)phenyl)quinazolin-4-ylamino)phenyl)ethanesulfonamide], for which the inhibition at 1 µM is 45.7%.
The same measure, in the same setting: to `O=S(=O)(Nc1ccc(-c2ccc3ncnc(Nc4ccccc4)c3c2)cc1)c1ccccc1` [Compound 28, N-(4-(4-(phenylamino)quinazolin-6-yl)phenyl)benzenesulfonamide] belongs 30.5%.
Take `COc1cc(-c2cc3c(Nc4ccccc4)ncnc3cc2OC)ccc1O` [Compound 30, 2-methoxy-4-(7-methoxy-4-(phenylamino)quinazolin-6-yl)phenol]: the inhibition at 1 µM was determined as 10%.
Still for that read-out and setting: to `COc1cc(-c2ccc3ncnc(Nc4cccc(C(=O)O)c4)c3c2)ccc1O` [Compound 32, 3-(6-(4-hydroxy-3-methoxyphenyl)quinazolin-4-ylamino)benzoic acid] belongs 34.7%; to `COc1cc(-c2ccc3ncnc(Nc4ccc5cc[nH]c5c4)c3c2)ccc1O` [Compound 40, 4-(4-(1H-indol-6-ylamino)quinazolin-6-yl)-2-methoxyphenol], 32.2%; to `COc1ccc(Nc2ncnc3cc(OC)c(-c4ccc(O)c(OC)c4)cc23)cc1O` [Compound 42, 4-(4-(3-hydroxy-4-methoxyphenylamino)-7-methoxyquinazolin-6-yl)-2-methoxyphenol], 20.4%.
On the same count and under the same terms, to `COc1cc(-c2ccc3ncnc(Nc4ccc(C(N)=O)cc4)c3c2)ccc1O` [Compound 47, 4-(6-(4-hydroxy-3-methoxyphenyl)quinazolin-4-ylamino)benzamide] belongs 37.8%; to `COc1ccc(C(=O)O)c(Nc2ncnc3ccc(-c4ccc(O)c(OC)c4)cc23)c1` [Compound 48, 2-(6-(4-hydroxy-3-methoxyphenyl)quinazolin-4-ylamino)-4-methoxybenzoic acid], 30.6%; to `COc1cc(-c2ccc3ncnc(Nc4ccccc4C(=O)O)c3c2)ccc1O` [Compound 50, 2-(6-(4-hydroxy-3-methoxyphenyl)quinazolin-4-ylamino)benzoic acid], 15.6%.
As for `COc1cc(-c2ccc3ncnc(Nc4cc(O)ccc4OC)c3c2)ccc1O` [Compound 55, 4-(4-(5-hydroxy-2-methoxyphenylamino)quinazolin-6-yl)-2-methoxyphenol], the inhibition at 1 µM is 38.1%.
On the same count and under the same terms, to `COc1cc(-c2ccc3ncnc(Nc4ccc(C(=O)O)cc4)c3c2)ccc1O` [Compound 57, 4-(6-(4-hydroxy-3-methoxyphenyl)quinazolin-4-ylamino)benzoic acid] belongs 4.8%; to `COc1cc(-c2ccc3ncnc(Nc4cccc(NS(=O)(=O)C(F)(F)F)c4)c3c2)ccc1O` [Compound 65, 1,1,1-trifluoro-N-(3-(6-(4-hydroxy-3-methoxyphenyl)quinazolin-4-ylamino)phenyl)methanesulfonamide], 40.4%.
On the same count and under the same terms, in the case of `O=S(=O)(Nc1ccc(-c2ccc3ncnc(Nc4ccccc4)c3c2)cc1)c1ccc(F)cc1` [Compound 70, 4-fluoro-N-(4-(4-(phenylamino)quinazolin-6-yl)phenyl)benzenesulfonamide] it was -6.5%; in that of `COc1cc(-c2ccc3ncnc(Nc4cccc5[nH]ccc45)c3c2)ccc1O` [Compound 83, 4-(4-(1H-indol-4-ylamino)quinazolin-6-yl)-2-methoxyphenol], 36.3%; in that of `COc1cc(-c2ccc3ncnc(Nc4ccc(F)c(NS(C)(=O)=O)c4)c3c2)ccc1O` [Compound 130, N-(2-fluoro-5-(6-(4-hydroxy-3-methoxyphenyl)quinazolin-4-ylamino)phenyl)methanesulfonamide], 44.1%.
Still for that read-out and setting: to `c1ccc(Nc2ncnc3ccc(-c4ccccc4)cc23)cc1` [Compound 132, N,6-diphenylquinazolin-4-amine] belongs 22.4%; to `COc1cc(-c2ccc3ncc(C#N)c(Nc4cccc5[nH]ncc45)c3c2)ccc1O` [Compound 135, 4-(1H-indazol-4-ylamino)-6-(4-hydroxy-3-methoxyphenyl)quinoline-3-carbonitrile], 24%.
In the case of `COc1cc(-c2ccc3ncnc(Nc4cc(NS(C)(=O)=O)ccc4Cl)c3c2)ccc1O` [Compound 139, N-(4-chloro-3-(6-(4-hydroxy-3-methoxyphenyl)quinazolin-4-ylamino)phenyl)methanesulfonamide], the inhibition at 1 µM was 25.8%.
The same measure, in the same setting: in the case of `COc1cc(-c2ccc3ncnc(Nc4ccc(Cl)c(NS(C)(=O)=O)c4)c3c2)ccc1O` [Compound 140, N-(2-chloro-5-(6-(4-hydroxy-3-methoxyphenyl)quinazolin-4-ylamino)phenyl)methanesulfonamide] it was 24.3%; in that of `COc1cc(-c2ccc3nccc(Nc4ccc(Cl)c(NS(C)(=O)=O)c4)c3c2)ccc1O` [Compound 141, N-(2-chloro-5-(6-(4-hydroxy-3-methoxyphenyl)quinolin-4-ylamino)phenyl)methanesulfonamide], 4.6%; in that of `Fc1ccc(Nc2ncnc3ccc(-c4ccc5[nH]ncc5c4)cc23)cc1Cl` [Compound 142, N-(3-chloro-4-fluorophenyl)-6-(1H-indazol-5-yl)quinazolin-4-amine], 23.3%.
Same read-out and setting: to `COc1cc(-c2ccc3nccc(Nc4ccc(F)c(NS(C)(=O)=O)c4)c3c2)ccc1O` [Compound 145, N-(2-fluoro-5-(6-(4-hydroxy-3-methoxyphenyl)quinolin-4-ylamino)phenyl)methanesulfonamide] belongs 7.5%.
Still for that read-out and setting: to `COc1cc(-c2ccc3ncnc(Nc4cc(NS(C)(=O)=O)c(F)cc4F)c3c2)ccc1O` [Compound 150, N-(2,4-difluoro-5-(6-(4-hydroxy-3-methoxyphenyl)quinazolin-4-ylamino)phenyl)methanesulfonamide] belongs 37.2%; to `C#Cc1cccc(Nc2ncnc3ccc(-c4ccc(OC)cc4)cc23)c1` [Compound 151, N-(3-ethynylphenyl)-6-(4-methoxyphenyl)quinazolin-4-amine], -5.4%.
As for `COc1cc(-c2ccc3ncnc(Nc4c(C)ccc5[nH]ncc45)c3c2)ccc1O` [Compound 155, 2-methoxy-4-(4-(5-methyl-1H-indazol-4-ylamino)quinazolin-6-yl)phenol], the inhibition at 1 µM was determined as 8.2%.

Still in this assay, the particulars now being: read-out: B-Raf inhibition at 1.0 μM.
As for `COc1cc(-c2ccc3ncnc(Nc4ccccc4)c3c2)ccc1OC(=O)Nc1ccccc1` [Compound 7, 2-methoxy-4-(4-(phenylamino)quinazolin-6-yl)phenyl phenylcarbamate], the inhibition at 1 µM was found to be 23.5%.
Consider `CCNC(=O)Oc1ccc(-c2ccc3ncnc(Nc4ccccc4)c3c2)cc1OC` [Compound 9, 2-methoxy-4-(4-(phenylamino)quinazolin-6-yl)phenyl ethylcarbamate], for which the inhibition at 1 µM was 13.8%.

Another assay deals with C-Raf (Homo sapiens (Human), UniProt P04049). Description: Raf kinase assay (C-Raf), [33P] incorporation into MEK1(K97R). Format: biochemical.
C-Raf, sequence (P04049 whole entry): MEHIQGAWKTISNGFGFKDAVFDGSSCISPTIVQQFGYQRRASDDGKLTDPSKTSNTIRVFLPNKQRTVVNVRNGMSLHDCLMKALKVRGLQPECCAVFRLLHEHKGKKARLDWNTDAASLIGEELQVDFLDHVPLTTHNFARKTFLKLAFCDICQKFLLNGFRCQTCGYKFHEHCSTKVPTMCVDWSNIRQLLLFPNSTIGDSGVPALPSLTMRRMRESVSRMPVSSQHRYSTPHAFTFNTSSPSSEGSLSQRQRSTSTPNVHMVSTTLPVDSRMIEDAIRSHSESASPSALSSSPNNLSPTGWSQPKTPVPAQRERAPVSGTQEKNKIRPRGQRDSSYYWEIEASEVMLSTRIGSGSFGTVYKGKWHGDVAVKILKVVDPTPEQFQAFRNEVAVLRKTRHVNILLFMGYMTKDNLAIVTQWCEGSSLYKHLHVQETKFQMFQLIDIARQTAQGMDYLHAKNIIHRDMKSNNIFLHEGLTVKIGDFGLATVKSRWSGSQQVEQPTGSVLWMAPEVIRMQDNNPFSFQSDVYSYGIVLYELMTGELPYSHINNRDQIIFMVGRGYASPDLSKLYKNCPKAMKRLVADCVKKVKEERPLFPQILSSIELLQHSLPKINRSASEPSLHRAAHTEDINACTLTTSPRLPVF
Conditions: not given
As to the method:
as §1, §2
`COc1cccc(-c2ccc3ncnc(Nc4ccccc4)c3c2)c1` [Compound 3, 6-(3-methoxyphenyl)-N-phenylquinazolin-4-amine] gave an IC50 of over 10000 nM.
`Oc1ccc(-c2ccc3ncnc(Nc4ccccc4)c3c2)cc1` [Compound 4, 4-(4-(phenylamino)quinazolin-6-yl)phenol] had a 50% inhibitory concentration (IC50) of 9460 nM. That is a single-digit micromolar value.
